Read-outs that look alike come from different tables or passages of the source.
Legend:
[1] = tested on: vincristine induced neuropathy; experiment: Morphometric analysis of sciatic nerve in vincristine-treated rats; format: in vivo, rat
Protocol: Histomorphometric analyses were carried out as described in Example 18 at the completion of the experiments, to explore morphologic changes occurring in fiber and axon diameter and myelin thickness in rats treated with vincristine and in rats co-administrated with IL-6.
With vincristine, morphometric analysis was performed 2 week after the end of vincristine administration on 3 animals per group. The animals were anesthetized by IP injection of 100 mg/kg Imalgène 500®. A 5 mm segment of sciatic nerve was excised, fixed overnight with 4% glutaraldehyde (Sigma, L'Isle d'Abeau-Chesnes, France) in phosphate buffered saline (PBS) (pH=7.4) and maintained in 30% sucrose and stored at 4° C. until further processing. At the time of use, the nerve sample was post-fixed in 1% osmium tetroxide (Sigma, L'Isle d'Abeau-Chesnes, France) in PBS for 2 h, dehydrated in serial alcohol solution, and embedded in Epon. Embedded tissues were then placed at 70° C. during 3 days to allow polymerization of the tissue wax. Cross sections of 1.5 μm thick were performed and they were stained with a 1% toluidine blue solution (Sigma, L'Isle d'Abeau-Chesnes, France) for 2 min, dehydrated and mounted on Eukitt. Twelve sections per sample were examined using an optical microscope (Nikon, Tokyo, Japan) and analyzed using, a semi-automated digital image analysis software (Biocom, France). The fiber diameter (a), axon diameter (b), and myelin thickness (c) were measured as illustrated below.

[2] = Body weight in cisplatin induced neuropathy rat model; format: in vivo
Protocol: (c) 4 treated-cisplatin-intoxicated groups (n=10) consisting of animals receiving daily SC injections of IL-6 compound at 4 different doses: 0.3, 1, 3, 10 μg/kg; and (d) a 4-methylcatechol (4-MC)-treated, cisplatin-intoxicated group (n=10) receiving a daily IP injection of 4-MC at 10 μg/kg. […] The drug was diluted in 0.9% sterile aqueous solution of sodium chloride.

[3] = tested on: cisplatin induced neuropathy; format: in vivo, rat
Protocol: Electrophysiological monitoring in cisplatin-induced neuropathy model was carried out as described in Example 17. The objective was to assess the effect of co-administration with IL-6 in cisplatin-induced loss of fiber/nerve function.
Electrophysiological recordings were performed using a Neuromatic 2000M electromyograph (EMG) (Dantec, Les Ulis, France). Rats were anaesthetized by IP injection of 60 mg/kg ketamine chlorhydrate (Imalgene 500®, Rhône Merieux, Lyon, France). The normal body temperature was maintained around […] with a heating lamp and verified using a contact thermometer (Quick, Bioblock Scientific, Illkirch, France) placed on the tail surface.
Compound muscle action potential (CMAP) of M wave signal (or electrically evoked muscle potential) was recorded in the gastrocnemius muscle after stimulation of the sciatic nerve. M wave reflects the current developed during the action potential of muscle fibers. A reference electrode and an active needle were placed in the hind paw. A ground needle was inserted on the lower back of the rat. Sciatic nerve was stimulated with a single 0.2 ms pulse at supramaximal intensity. The […] of the motor wave was recorded and expressed in ms.
(§1) Sensitive nerve conduction velocity (SNCV) was also recorded. The tail skin electrodes were placed as follows: a reference needle inserted at the base of the tail and an anode needle placed 30 mm away from the reference needle toward the extremity of the tail. A ground needle electrode was inserted between the anode and reference needles. The caudal nerve was stimulated with a series of 20 pulses (for 0.2 ms) at an intensity of 12.8 mA. The velocity was expressed in m/s.
H-wave reflex was recorded in the hind footpad muscle after stimulation of the sciatic nerve. A reference electrode and a ground needle were placed on the lower back of the rat. The sciatic nerve was stimulated with a single 0.2 ms pulse at supramaximal intensity. The amplitude (mV) of H wave and the proportion of animal lacking H wave response were the parameters studied.

[4] = tested on: cisplatin induced neuropathy; experiment: Morphometric analysis of sciatic nerve in cisplatin-treated rats, co-administration; format: in vivo, rat
Protocol: The total number of fibers per nerve section was obtained from 3 randomized slices of each sample. The counting was performed on 2 selected fields per slice.

[5] = tested on: cisplatin induced neuropathy; experiment: Morphometric analysis, therapeutic treatment of established cisplatin neuropathy; format: in vivo, rat; conditions: for proportion of degenerated fibers versus control: p≦0.05
From the text: The number of degenerated and non-degenerated fibers on the entire surface of each nerve section was counted by an operator in a blinded fashion. All the results (except the data expressed as ratio value) were reported as percentage of changes in reference to the control value.

taxol induced neuropathy = experiment: Electrophysiological monitoring in taxol induced neuropathy, co-administration; format: in vivo, rat
Protocol: The aim of the following experiment was to investigate the potential neuroprotective effect of IL6 in an additional model of chemotherapeutic induced neuropathy mediated by taxol. The potential preventive effect of IL-6 co-administration was tested. Administration of IL-6 was initiated together with taxol administration. The doses of IL-6 of 3 and 10 μg/kg were administered daily or in the case 10 μg/kg also only 3 times per week.
Females 10 weeks old aged Dark Agouti rats were used, 12 animals per group were included as following
The taxol was diluted in a solution of cremophor/ethanol/dextrose 5% and administered twice a week during 4 weeks.
4-MC and test compounds treatment was initiated the first day of intoxication and was stopped at the end of the study.
The study was performed on 8 weeks (1 week for the baseline, 4 weeks for the taxol intoxication and 3 weeks of recovery).
Control, taxol, and taxol-IL-6 co-administered group of rats at the indicated doses were subjected to electrophysiological monitoring to assess the effect of IL-6 in taxol-induced loss of fiber/nerve function.
as §1
H-wave reflex was recorded in the hind footpad muscle after stimulation of the sciatic nerve. […] The sciatic nerve was stimulated with a single 0.2 ms pulse at supramaximal intensity. The amplitude (mV) of H wave and the proportion of animal lacking H wave response were the parameters studied.

[6] = patients with myelodysplastic syndromes and trombocytopenia; cited from earlier work
[7] = rodents; cited from earlier work
[8] = monkeys; cited from earlier work
[9] = cisplatin alone, 3 weeks after cessation of cisplatin

IL-6: Recombinant human IL-6 produced in genetically engineered Chinese Hamster Ovary (CHO) cells
decrease in axon diameter by vincristine ([1]; IL-6 0.3-10 μg/kg SC daily): significantly reduced/prevented the decrease in axon diameter
percentage of degenerated fibers in vincristine treated rats ([1]; IL-6 0.3-10 μg/kg SC daily): decreased the percentage of degenerated fibers
vincristine-induced fiber shrinkage ([1]; IL-6 1-10 μg/kg SC daily): prevented vincristine-induced fiber shrinkage
vincristine-induced myelin loss ([1]; IL-6 1-10 μg/kg SC daily): reduced/prevented vincristine-induced myelin loss
animal growth under cisplatin with IL-6 ([2]; IL-6 0.3, 1, 3, 10 μg/kg SC daily with cisplatin): marked inhibition of animal growth, regardless of IL-6 treatments undertaken
loss of H wave amplitude by cisplatin ([3]; IL-6 10 μg/kg SC daily, throughout the experiment): fully prevented the loss of H wave amplitude
loss of H wave amplitude by cisplatin ([3]; IL-6 0.3, 1, 3, 10 μg/kg SC daily): reduce/prevent the loss of H wave amplitude
SNCV in cisplatin treated rats ([3]; IL-6, especially at 3 and 10 μg/kg, after 5 weeks): improve SNCV
prevention of cisplatin-induced loss of fiber/nerve function compared with 4-MC ([3]; IL-6 vs 4-MC 10 μg/kg IP): more effective in preventing cisplatin-induced loss of fiber/nerve function than 4-MC
loss of myelin wall by cisplatin ([4]; IL-6 1, 3, 10 μg/kg): significantly protected fibers against the loss of myelin wall
percentage of degenerated fibers by cisplatin ([4]; IL-6 1, 3, 10 μg/kg): reduce the percentage of degenerated fibers
cisplatin-induced axon diameter decrease ([4]; IL-6, statistically significant at 1-10 μg/kg): prevents/reduces cisplatin-induced axon diameter decrease
fiber diameter decrease by cisplatin ([4]; IL-6 all doses tested, statistically significant at 1-10 μg/kg): prevents/reduce the diameter decrease
myelinated fibers in cisplatin treated rats ([4]; IL-6 co-administration): increased myelinated fibers
cisplatin-induced myelin sheath thinning ([5]; IL-6 10 μg/kg): appeared to reverse cisplatin-induced myelin sheath thinning
percentage of degenerated fibers, significance ([5]; IL-6 10 μg/kg): significant effect
large/small fibers ratio ([5]; IL-6 treatment): slight increase
percentage of degenerated fibers ([5]; IL-6 treatment (3 and 10 μg/kg)): significantly reduced the percentage of degenerated fibers
restoring myelin and fiber degeneration compared with 4-MC ([5]; IL-6 vs 4-MC): more efficient than 4-MC
H wave latency under taxol (taxol induced neuropathy; IL-6 3 or 10 μg/kg daily or 10 μg/kg 3 times per week, sc): prevent/reduce H wave latency
alterations in SNCV by taxol (taxol induced neuropathy; IL-6 3 or 10 μg/kg daily or 3 times per week): prevent alterations in SNCV
reduction in H wave amplitude by taxol (taxol induced neuropathy; IL-6 at all the dosages tested, throughout the experiment): significantly prevented the reduction in H wave amplitude
preventive effects compared with 4-MC co-administration (taxol induced neuropathy; IL-6 vs 4-MC): more significant than those of 4-MC co-administration
maximum dose tolerated [6]: 3.75 µg/kg/day
active dose as thrombopoietic factor [7]: above 500 μg/kg
active dose as thrombopoietic factor [8]: 0.01 mg/kg

N.N.[Cl][Pt][Cl] [cisplatin, Cis-dichlorodiamine platinum]
body weight lost at completion of cisplatin administration ([2]; cisplatin 2 mg/kg IP twice a week, 4 weeks, vehicle-treated): about 10%
SNCV versus non-treated control ([3]; rat, in vivo): significantly slow
reduction of H wave amplitude ([3]; rat, in vivo): about 80%
fiber diameter ([4]; cisplatin alone): significantly decreases fibers diameter
percent of myelinated fibers versus control ([4]; cisplatin alone): significant reduction in the percent of myelinated fibers
percentage of degenerated fibers versus control ([4]; cisplatin alone): two-folds higher
proportion of non-degenerated myelinated fibers versus control [5, 9]: lower
proportion of degenerated fibers versus control [5, 9]: significantly higher
proportion of non-degenerated myelinated fibers versus control ([5]; cisplatin alone, day 23): lower
proportion of degenerated fibers versus control ([5]; cisplatin alone, day 23): significant greater proportion of degenerated fibers
myelin area ([5]; cisplatin alone, day 44, p>0.05): slight but not significant reduction
overall size of myelin versus control ([5]; cisplatin alone, up to day 23, not significant (p>0.05)): slightly reduced

Source: patent US7951359B2, “Compositions and methods for therapy or prevention of chemotherapy-induced neuropathy” (Merck Serono SA, priority 2004, dated 2011)
